# In the OPERA property sets (Mansouri et al. 2018):
# Conditions: not given
Structure (SMILES),log10 Koc (L/kg),boiling point,melting point,log10 vapour pressure (mmHg),log10 biodegradation half-life (days),ready biodegradability,log10 Henry constant (atm·m³/mol),log10 Koa
CCCOC(=O)Nc1ccccc1,2.06,–,–,–,–,–,–,–
CCN(CCO)c1ccccc1,–,268 °C,37 °C,–,–,–,–,–
CC(C)NCC(O)c1ccc2ccccc2c1 (stereo not drawn),–,–,108 °C,–,–,–,–,–
CC(=O)O[Si](C)(OC(C)=O)OC(C)=O,–,–,40.5 °C,–,–,–,–,–
CC(C)CCOCc1ccccc1,–,237 °C,–,–,–,–,–,–
Nc1cnc2ccccc2c1,–,–,91.5 °C,-4.54,–,–,–,–
O=c1[nH]c(=O)n([C@H]2CC[C@@H](CO)O2)cc1Br,–,–,180 °C,–,–,–,–,–
O=C(Cc1ccccc1)OCCc1ccccc1,–,–,26.5 °C,–,–,–,–,–
O=CC1CC=CCC1 (stereo not drawn),–,105 °C,2 °C,–,–,–,–,–
COc1ccc2c(c1)CC[C@@H]1[C@@H]2CC[C@]2(C)C(=O)[C@H](Cl)C[C@@H]12,–,–,180 °C,–,–,–,–,–
Cc1cccc(Nc2ccccc2)c1,–,316 °C,30 °C,-3.83,–,–,–,–
CCCCCCOCCOCCO,–,260 °C,-40 °C,-2.93,–,–,–,–
CN(C)CCCO,–,164 °C,–,–,–,–,–,–
CCC(C)(C)CCC(C)C,–,153 °C,–,–,–,–,–,–
O=c1cc[nH]c2cc(C(F)(F)F)ccc12,–,–,268 °C,–,–,–,–,–
NCCc1cnc[nH]1,–,–,86 °C,–,–,–,–,–
O=c1cc(-c2ccccc2)oc2ccccc12,–,–,100 °C,–,–,–,–,–
CCCCCCCCN(C)CCCCCCCC,–,–,-30.1 °C,–,–,–,–,–
CCCc1ccccc1C,–,185 °C,-60.3 °C,-0.0027,0.477,–,–,–
CC1(O)CCCCCC1,–,184 °C,–,–,–,–,–,–
OCc1c[nH]c2ccccc12,–,–,97.5 °C,–,–,–,–,–
O=C(O)C(F)(F)C(F)(F)C(F)(F)C(F)(F)C(F)(F)C(F)(F)C(F)(F)F,–,189 °C,55 °C,-0.28,–,not readily biodegradable,–,–

Structure (SMILES),log10 Koc (L/kg),boiling point,melting point,log10 vapour pressure (mmHg),log10 biodegradation half-life (days),ready biodegradability,log10 Henry constant (atm·m³/mol),log10 Koa
CCCCOCCOC(=O)COc1cc(Cl)c(Cl)cc1Cl,–,–,–,-5.82,–,–,–,–
Clc1ccc2c(c1)Oc1cc(Cl)ccc1O2,–,–,151 °C,-5.98,–,–,–,–
Nc1cc(-c2ccccc2)ccc1O,–,–,200 °C,–,–,–,–,–
CCC(=O)C(C)CC (stereo not drawn),–,134 °C,–,–,–,–,–,–
CCOC(=O)N1C(=O)c2ccccc2C1=O,–,–,91 °C,–,–,–,–,–
CCCCC(CC)CC,–,143 °C,-115 °C,–,–,–,–,–
Cc1ccc(O)c(Cl)c1C,–,188 °C,27 °C,–,–,–,–,–
O=CNNC=O,–,–,156 °C,-6.13,–,–,–,–
c1ccc(-c2ccncc2)cc1,–,281 °C,77.5 °C,–,–,–,–,–
COc1cc2c(cc1OC)[C@]1(O)C(=O)c3ccc4c(c3O[C@@H]1CO2)C=CC(C)(C)O4,–,–,198 °C,–,–,–,–,–
c1ccc(OC2CCCCC2)cc1,–,261 °C,–,–,–,–,–,–
Cc1ccc(C)c2ccccc12,–,268 °C,7.6 °C,-1.67,1.18,–,–,–
CC[C@H]1C[N@@]2CC[C@H]1C[C@H]2[C@H](O)c1ccnc2ccc(OC)cc12,–,–,170 °C,–,–,–,–,–
CCNC(=O)/C=C(C)/C=C/C=C(C)/C=C/c1c(C)cc(OC)c(C)c1C,–,–,180 °C,–,–,–,–,–
O=c1cccccc1O,–,–,50.8 °C,–,–,–,–,–
C#CC(C)=CC,–,66.5 °C,–,–,–,–,–,–
CCOC(=O)c1cccc(Cl)c1,–,243 °C,–,–,–,–,–,–
O=CC(Cl)Cl,–,89.2 °C,–,1.74,–,–,–,–
Clc1cc(Cl)c2oc3c(Cl)c(Cl)ccc3c2c1,–,–,164 °C,-7.48,–,–,–,–
CC(C)(C)C(C)(C)Cl,–,–,136 °C,–,–,–,–,–
Cc1ccc(CCc2ccc(C)cc2)cc1,–,–,85 °C,–,–,–,–,–
C=CC(=O)OCC(CO)(COC(=O)C=C)COC(=O)C=C,–,–,–,–,–,not readily biodegradable,–,–

Structure (SMILES),log10 Koc (L/kg),boiling point,melting point,log10 vapour pressure (mmHg),log10 biodegradation half-life (days),ready biodegradability,log10 Henry constant (atm·m³/mol),log10 Koa
Oc1ccc(OCc2ccccc2)cc1,–,–,122 °C,–,–,–,–,–
O=C1CCCCC1Cl (stereo not drawn),–,–,23 °C,–,–,–,–,–
O=C(Nc1ccccc1)NC1CCCCC1,2.07,–,–,–,–,–,–,–
CNC(=O)Oc1ccc(C)c(C)c1,–,–,79.5 °C,-3.24,–,–,–,–
CCC1(C)CC1,–,56.8 °C,-130 °C,–,–,–,–,–
CC(O)=S,–,93 °C,–,–,–,–,–,–
CC(C)NC(=O)COC(=O)c1ccccc1,–,–,130 °C,–,–,–,–,–
O=C1Cc2ccccc2O1,–,249 °C,50 °C,–,–,–,–,–
FC(F)(F)C(Cl)CCl (stereo not drawn),–,76.9 °C,–,–,–,–,–,–
C#CCCCCCCCCCCCCCC,–,284 °C,15 °C,–,–,–,–,–
CCCC(O)(CC)CC,–,160 °C,–,–,–,–,–,–
CCCCCC(CO)CCC (stereo not drawn),–,218 °C,–,–,–,–,–,–
CCCOB(OCCC)OCCC,–,180 °C,–,–,–,–,–,–
CCCCCCCCCCCCCCCCCCCCCCCCCCCCO,–,–,83.3 °C,–,–,readily biodegradable,–,–
CCCCCCCCCC(C)=O,–,232 °C,15 °C,-1.38,–,–,-4.2,–
Cc1ccc2cccnc2c1,–,258 °C,39 °C,-2.05,–,–,–,–
CCCCCCCCCCCCCCCCCCC,–,330 °C,32.1 °C,-4.31,1.26,readily biodegradable,–,–
CCN(CC)C(=O)Nc1ccc(OCC(O)CNC(C)(C)C)c(C(C)=O)c1 (stereo not drawn),–,–,111 °C,–,–,–,–,–
Clc1ccc2c(c1)C(c1ccccc1)=NCc1nncn1-2,–,–,228 °C,–,–,–,–,–
CCCCCCCCCCCCc1ccccc1O,–,–,–,–,–,not readily biodegradable,–,–
Nc1ccc2c(c1)Cc1ccccc1-2,–,–,129 °C,–,–,–,–,–
CC1=NCCN1,–,196 °C,107 °C,–,–,–,–,–

Structure (SMILES),log10 Koc (L/kg),boiling point,melting point,log10 vapour pressure (mmHg),log10 biodegradation half-life (days),ready biodegradability,log10 Henry constant (atm·m³/mol),log10 Koa
CO[C@H]1O[C@H](CO)[C@@H](O)[C@H](O)[C@H]1O,–,–,168 °C,–,–,–,–,–
c1ccc(OCC2CO2)cc1 (stereo not drawn),–,245 °C,3.5 °C,-2,–,not readily biodegradable,–,–
CSC(=O)c1c(C(F)F)nc(C(F)(F)F)c(C(=O)SC)c1CC(C)C,–,–,65 °C,–,–,–,–,–
O=C1CSC(=S)N1,–,–,170 °C,–,–,–,–,–
O=c1n(CCO)c(=O)n(CCO)c(=O)n1CCO,–,–,–,–,–,not readily biodegradable,–,–
C#CCOC(=O)[C@@H](C)Oc1ccc(Oc2ncc(Cl)cc2F)cc1,–,–,59.5 °C,-7.62,–,–,–,–
COc1ccc(C=Cc2ccc(OC)cc2)cc1,–,–,214 °C,–,–,–,–,–
CCC(C)COC (stereo not drawn),–,90 °C,–,–,–,–,–,–
Nc1ccc(C(=O)O)cc1O,–,–,213 °C,–,–,–,–,–
CN(CCCN1c2ccccc2CCc2ccccc21)CC(=O)c1ccc(Cl)cc1,–,–,105 °C,–,–,–,–,–
COc1c(F)c(F)cc(F)c1F,–,138 °C,–,–,–,–,–,–
CC(C)(C)c1cc(C(C)(C)C)c(O)c(C(C)(C)C)c1,–,278 °C,131 °C,-3.18,–,not readily biodegradable,–,–
O=C(Nc1ccc(Br)cc1)c1c(O)cccc1O,–,–,229 °C,–,–,–,–,–
C[C@]12CC[C@@H]3c4ccc(O)cc4CC[C@H]3[C@@H]1CC[C@@H]2O,–,–,200 °C,–,–,–,–,–
C=CC(Cl)Cl,–,84.4 °C,–,1.85,–,–,–,–
CC(C)OC(=O)C1(S(=O)(=O)c2ccc([N+](=O)[O-])cc2)CC1,–,–,123 °C,–,–,–,–,–
COc1ccc(C(=O)c2csc(S(N)(=O)=O)c2)cc1,–,–,174 °C,–,–,–,–,–
C1=CC2CCC1C2,–,96 °C,45 °C,1.59,–,–,–,–
CCCC(C(N)=O)n1nc2ccccc2n1 (stereo not drawn),–,–,126 °C,–,–,–,–,–
C=C[Si]1(C)O[Si](C)(C=C)O[Si](C)(C=C)O[Si](C)(C=C)O1 (stereo not drawn),–,224 °C,-43.5 °C,–,–,–,–,–
Clc1cc(Cl)c2cc(Cl)c(Cl)c(Cl)c2c1,–,–,–,-5.68,–,–,–,8.82
O=S(c1ccccc1)c1ccccc1,–,–,71.2 °C,–,–,–,–,–

Structure (SMILES),log10 Koc (L/kg),boiling point,melting point,log10 vapour pressure (mmHg),log10 biodegradation half-life (days),ready biodegradability,log10 Henry constant (atm·m³/mol),log10 Koa
c1ccc2c(-c3cccc4ccccc34)cccc2c1,–,–,160 °C,–,–,–,–,–
C#CCCCC#C,–,112 °C,-85 °C,–,–,–,–,–
IC(I)=C(I)I,–,–,187 °C,–,–,–,–,–
CNC(=O)OCc1cccc(COC(=O)NC)n1,–,–,136 °C,–,–,–,–,–
CC(c1ccccc1)c1ccc(O)c(C(C)c2ccccc2)c1C(C)c1ccccc1 (stereo not drawn),–,–,–,–,–,not readily biodegradable,–,–
C=C(C)C(C)CCC (stereo not drawn),–,110 °C,–,–,–,–,–,–
CC(C)CI,–,121 °C,-93 °C,1.19,–,–,–,–
COC(=O)CS,–,148 °C,–,0.477,–,–,–,–
COc1cccc(C=O)c1O,–,266 °C,44.5 °C,–,–,–,–,–
Cc1ccc(N)cc1F,–,–,31 °C,–,–,–,–,–
O=C(O)c1c(Cl)ccc(Cl)c1O,2.3,–,–,–,–,–,–,–
CCCCCC=CCC=CCCCCCCCC(=O)O,–,–,–,–,–,readily biodegradable,–,–
NC(=O)COc1ccccc1,–,–,102 °C,–,–,–,–,–
O=S(=O)(Cl)c1cccc2ccccc12,–,–,68 °C,–,–,–,–,–
O=[N+]([O-])c1ccccc1Nc1ccccc1,–,–,75 °C,-5,–,–,–,–
C=CCOC(=O)OCC=C,–,142 °C,–,-0.991,–,–,–,–
Cc1ccc(Br)cc1,–,184 °C,28.5 °C,0.0607,–,–,-2.63,–
CN(C)CC/C=C1\c2ccccc2CSc2ccccc21,–,–,56 °C,–,–,–,–,–
O=S(=O)(O)c1ccc2ccccc2c1,–,–,91 °C,–,–,–,–,–
COC(=O)C=Cc1ccccc1,–,260 °C,36 °C,-1.46,–,–,–,–

# Same assay, conditions: fish
Structure (SMILES),log10 BCF,log10 biotransformation half-life (days)
O=c1n(CCO)c(=O)n(CCO)c(=O)n1CCO,0.2,–
CC(C)(C)c1cc(C(C)(C)C)c(O)c(C(C)(C)C)c1,4.14,1.81
